These results are taken from US20230279025A1, “KRAS G12D INHIBITORS” (Mirati Therapeutics, Inc., priority 2020, published 2023).

This experiment has as its target KRas G12D (Homo sapiens (Human), UniProt P01116, G12D). In words: KRas G12D Binding Assay (TR-FRET displacement of Cy5 labelled tracer). Particulars: GDP-loaded KRAS G12D (amino acids 1:169), 60 minute incubation at 22° C. How it is done:
After a 60 minute incubation at 22° C., the reaction was measured using a PerkinElmer EnVision multimode plate reader via TR-FRET dual wavelength detection, and the percent of control (POC) calculated using a ratiometric emission factor. […] The POC values were fit to a 4-parameter logistic curve and the IC50 value was determined as the concentration where the curve crosses 50 POC.
ND stands for “not determined.”
On the technique in general: In TR-FRET formats the signal depends on donor and acceptor labels being close together.

Chain of KRas G12D (P01116 other isoform, or with tags, fused parts or gaps G12D): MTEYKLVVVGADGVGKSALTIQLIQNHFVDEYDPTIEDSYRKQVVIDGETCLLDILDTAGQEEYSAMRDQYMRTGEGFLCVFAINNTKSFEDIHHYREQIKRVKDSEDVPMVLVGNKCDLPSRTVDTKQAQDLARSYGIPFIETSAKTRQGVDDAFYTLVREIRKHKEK

As for `C#Cc1cccc2cc(OC)cc(-c3ncc4c(N5C[C@H]6CC[C@@H](C5)N6)nc(OCC56CCCN5CCC6)nc4c3F)c12` [Example 231, 4-((1R,5S)-3,8-diazabicyclo[3.2.1]octan-3-yl)-7-(8-ethynyl-3-methoxynaphthalen-1-yl)-8-fluoro-2-((hexahydro-1H-pyrrolizin-7a-yl)methoxy)pyrido[4,3-d]pyrimidine], the IC50 is 19.8 nM. This counts as double-digit nanomolar. To `C#Cc1c(F)ccc2cc(O)cc(-c3ncc4c(N5C[C@H]6CC[C@@H](C5)N6)nc(OCC56CCCN5CCC6)nc4c3F)c12` [Example 232, 4-(4-((1R,5S)-3,8-diazabicyclo[3.2.1]octan-3-yl)-8-fluoro-2-((tetrahydro-1H-pyrrolizin-7a(5H)-yl)methoxy)pyrido[4,3-d]pyrimidin-7-yl)-5-ethynyl-6-fluoronaphthalen-2-ol] belongs 0.6 nM; to `c1ccc2c(-c3cc4nc(OCC56CCCN5CCC6)nc(N5C[C@H]6CC[C@@H](C5)N6)c4cn3)cccc2c1` [Example 233, 4-((1R,5S)-3,8-diazabicyclo[3.2.1]octan-3-yl)-7-(naphthalen-1-yl)-2-((tetrahydro-1H-pyrrolizin-7a(5H)-yl)methoxy)pyrido[4,3-d]pyrimidine], 387 nM. `Fc1c(-c2cccc3cccc(F)c23)ncc2c(N3C[C@H]4CC[C@@H](C3)N4)nc(OCC34CCCN3CCC4)nc12` [Example 234, 4-((1R,5S)-3,8-diazabicyclo[3.2.1]octan-3-yl)-8-fluoro-7-(8-fluoronaphthalen-1-yl)-2-((tetrahydro-1H-pyrrolizin-7a(5H)-yl)methoxy)pyrido[4,3-d]pyrimidine] yielded an IC50 of 5.9 nM. On to `Fc1c(-c2cccc3cccc(Br)c23)ncc2c(N3C[C@H]4CC[C@@H](C3)N4)nc(OCC34CCCN3CCC4)nc12` [Example 235, 4-((1R,5S)-3,8-diazabicyclo[3.2.1]octan-3-yl)-7-(8-bromonaphthalen-1-yl)-8-fluoro-2-((tetrahydro-1H-pyrrolizin-7a(5H)-yl)methoxy)pyrido[4,3-d]pyrimidine], for which the IC50 came to 1.2 nM. This IC50 is about 4.9-fold lower than that of the molecule before. `COc1cccc2cccc(-c3ncc4c(N5C[C@H]6CC[C@@H](C5)N6)nc(OCC56CCCN5CCC6)nc4c3F)c12` [Example 236, 4-((1R,5S)-3,8-diazabicyclo[3.2.1]octan-3-yl)-8-fluoro-2-((hexahydro-1H-pyrrolizin-7a-yl)methoxy)-7-(8-methoxynaphthalen-1-yl)pyrido[4,3-d]pyrimidine] gave a concentration for half-maximal inhibition (IC50) of 25 nM.

Consider `Oc1cccc2cccc(-c3ncc4c(N5C[C@H]6CC[C@@H](C5)N6)nc(OCC56CCCN5CCC6)nc4c3F)c12` [Example 237, 8-(4-((1R,5S)-3,8-diazabicyclo[3.2.1]octan-3-yl)-8-fluoro-2-((tetrahydro-1H-pyrrolizin-7a(5H)-yl)methoxy)pyrido[4,3-d]pyrimidin-7-yl)naphthalen-1-ol], for which the IC50 worked out at 500 nM.

`OCc1cccc2cccc(-c3ncc4c(N5C[C@H]6CC[C@@H](C5)N6)nc(OCC56CCCN5CCC6)nc4c3F)c12` [Example 238, (8-(4-((1R,5S)-3,8-diazabicyclo[3.2.1]octan-3-yl)-8-fluoro-2-((tetrahydro-1H-pyrrolizin-7a(5H)-yl)methoxy)pyrido[4,3-d]pyrimidin-7-yl)naphthalen-1-yl)methanol] yielded an IC50 of 16.1 nM.

Turning to `OCCc1cccc2cccc(-c3ncc4c(N5C[C@H]6CC[C@@H](C5)N6)nc(OCC56CCCN5CCC6)nc4c3F)c12` [Example 239, 2-(8-(4-((1R,5S)-3,8-diazabicyclo[3.2.1]octan-3-yl)-8-fluoro-2-((tetrahydro-1H-pyrrolizin-7a(5H)-yl)methoxy)pyrido[4,3-d]pyrimidin-7-yl)naphthalen-1-yl)ethan-1-ol], the IC50 was 2 nM. `NC(=O)Cc1cccc2cccc(-c3ncc4c(N5C[C@H]6CC[C@@H](C5)N6)nc(OCC56CCCN5CCC6)nc4c3F)c12` [Example 240, 2-(8-(4-((1R,5S)-3,8-diazabicyclo[3.2.1]octan-3-yl)-8-fluoro-2-((tetrahydro-1H-pyrrolizin-7a(5H)-yl)methoxy)pyrido[4,3-d]pyrimidin-7-yl)naphthalen-1-yl)acetamide] had an IC50 of 315 nM.

Take `NCC#Cc1cccc2cccc(-c3ncc4c(N5C[C@H]6CC[C@@H](C5)N6)nc(OCC56CCCN5CCC6)nc4c3F)c12` [Example 241, 3-(8-(4-((1R,5S)-3,8-diazabicyclo[3.2.1]octan-3-yl)-8-fluoro-2-((tetrahydro-1H-pyrrolizin-7a(5H)-yl)methoxy)pyrido[4,3-d]pyrimidin-7-yl)naphthalen-1-yl)prop-2-yn-1-amine]: the IC50 was 79.2 nM.

Molecule `CCC#Cc1cccc2cccc(-c3ncc4c(N5C[C@H]6CC[C@@H](C5)N6)nc(OCC56CCCN5CCC6)nc4c3F)c12` [Example 242, 4-((1R,5S)-3,8-diazabicyclo[3.2.1]octan-3-yl)-7-(8-(but-1-yn-1-yl)naphthalen-1-yl)-8-fluoro-2-((tetrahydro-1H-pyrrolizin-7a(5H)-yl)methoxy)pyrido[4,3-d]pyrimidine] displayed an IC50 of 82.2 nM.

The molecule `C#Cc1cccc2cc(O)cc(-c3ncc4c(N5C[C@H]6CC[C@@H](C5)N6)nc(OC[C@@]56CCCN5C[C@H](F)C6)nc4c3F)c12` [Example 243] came in with an IC50 of 0.4 nM. To `C#Cc1cccc2cc(O)cc(-c3ncc4c(N5C[C@H]6CC[C@@H](C5)N6)ncnc4c3F)c12` [Example 244, 4-(4-((1R,5S)-3,8-diazabicyclo[3.2.1]octan-3-yl)-8-fluoropyrido[4,3-d]pyrimidin-7-yl)-5-ethynylnaphthalen-2-ol] belongs 4.2 nM; to `Oc1cc(-c2ncc3c(N4C[C@H]5CC[C@@H](C4)N5)nc(OCC45CCCN4CCC5)nc3c2F)c2c(Cl)c(F)ccc2c1` [Example 245, 4-(4-((1R,5S)-3,8-diazabicyclo[3.2.1]octan-3-yl)-8-fluoro-2-((hexahydro-1H-pyrrolizin-7a-yl)methoxy)pyrido[4,3-d]pyrimidin-7-yl)-5-chloro-6-fluoronaphthalen-2-ol], 0.5 nM; to `Oc1cc(-c2ncc3c(N4C[C@H]5CC[C@@H](C4)N5)nc(OC[C@@]45CCCN4C[C@H](F)C5)nc3c2F)c2c(F)c(F)ccc2c1` [Example 246, 4-(4-((1R,5S)-3,8-diazabicyclo[3.2.1]octan-3-yl)-8-fluoro-2-(((2R,7aS)-2-fluorohexahydro-1H-pyrrolizin-7a-yl)methoxy)pyrido[4,3-d]pyrimidin-7-yl)-5,6-difluoronaphthalene-2-ol], 0.6 nM.

Molecule `Fc1c(-c2cccc3cccc(CC(F)F)c23)ncc2c(N3C[C@H]4CC[C@@H](C3)N4)nc(OCC34CCCN3CCC4)nc12` [Example 247, 4-((1R,5S)-3,8-diazabicyclo[3.2.1]octan-3-yl)-7-(8-(2,2-difluoroethyl)naphthalen-1-yl)-8-fluoro-2-((hexahydro-1H-pyrrolizin-7a-yl)methoxy)pyrido[4,3-d]pyrimidine] yielded an IC50 of 12.6 nM. Against the preceding molecule, the IC50 is about 21-fold higher. In the case of `FCCc1cccc2cccc(-c3ncc4c(N5C[C@H]6CC[C@@H](C5)N6)nc(OCC56CCCN5CCC6)nc4c3F)c12` [Example 248, 4-((1R,5S)-3,8-diazabicyclo[3.2.1]octan-3-yl)-8-fluoro-7-(8-(2-fluoroethyl)naphthalen-1-yl)-2-((tetrahydro-1H-pyrrolizin-7a(5H)-yl)methoxy)pyrido[4,3-d]pyrimidine] it was 3.2 nM; in that of `Cc1cc2[nH]ncc2c(-c2ncc3c(N4C[C@H]5CC[C@@H](C4)N5)nc(OCC45CCCN4CCC5)nc3c2F)c1C` [Example 249, 4-((1R,5S)-3,8-diazabicyclo[3.2.1]octan-3-yl)-7-(5,6-dimethyl-1H-indazol-4-yl)-8-fluoro-2-((hexahydro-1H-pyrrolizin-7a-yl)methoxy)pyrido[4,3-d]pyrimidine], 3.5 nM. Molecule `Cc1cc2[nH]ccc2c(-c2ncc3c(N4C[C@H]5CC[C@@H](C4)N5)nc(OCC45CCCN4CCC5)nc3c2F)c1C` [Example 250, 4-((1R,5S)-3,8-diazabicyclo[3.2.1]octan-3-yl)-7-(5,6-dimethyl-1H-indol-4-yl)-8-fluoro-2-((hexahydro-1H-pyrrolizin-7a-yl)methoxy)pyrido[4,3-d]pyrimidine] had an IC50 of 28.2 nM. This IC50 lies about 8.1-fold higher than the previous one. `Oc1cc(-c2ncc3c(N4C[C@H]5CC[C@@H](C4)N5)nc(OC[C@@]45CCCN4C[C@H](F)C5)nc3c2F)c2c(Cl)cccc2c1` [Example 251, 4-(4-((1R,5S)-3,8-diazabicyclo[3.2.1]octan-3-yl)-8-fluoro-2-(((2R,7aS)-2-fluorohexahydro-1H-pyrrolizin-7a-yl)methoxy)pyrido[4,3-d]pyrimidin-7-yl)-5-chloronaphthalen-2-ol]: the IC50 was determined as 0.2 nM. In the case of `CCCc1cccc2cccc(-c3ncc4c(N5C[C@H]6CC[C@@H](C5)N6)nc(OCC56CCCN5CCC6)nc4c3F)c12` [Example 254, 4-((1R,5S)-3,8-diazabicyclo[3.2.1]octan-3-yl)-8-fluoro-2-((hexahydro-1H-pyrrolizin-7a-yl)methoxy)-7-(8-propylnaphthalen-1-yl)pyrido[4,3-d]pyrimidine], the IC50 amounted to 6.1 nM. To `FCCCc1cccc2cccc(-c3ncc4c(N5C[C@H]6CC[C@@H](C5)N6)nc(OCC56CCCN5CCC6)nc4c3F)c12` [Example 255, 4-((1R,5S)-3,8-diazabicyclo[3.2.1]octan-3-yl)-8-fluoro-7-(8-(3-fluoropropyl)naphthalen-1-yl)-2-((hexahydro-1H-pyrrolizin-7a-yl)methoxy)pyrido[4,3-d]pyrimidine] belongs 8.7 nM; to `Cc1ccc(O)cc1-c1ncc2c(N3C[C@H]4CC[C@@H](C3)N4)nc(OCC34CCCN3CCC4)nc2c1F` [Example 256, 3-(4-((1R,5S)-3,8-diazabicyclo[3.2.1]octan-3-yl)-8-fluoro-2-((hexahydro-1H-pyrrolizin-7a-yl)methoxy)pyrido[4,3-d]pyrimidin-7-yl)-4-methylphenol], 13.2 nM.

What is called IC50 is the concentration that inhibits the measured activity by half. The low end stands for greater potency, the high end for weaker potency.
